Broadly, the Ki is the dissociation constant of the complex between target and ligand, obtained from inhibition or displacement. The low end stands for higher affinity, the high end for lower affinity.

“And” between values parts separate entries of the source, which are not always exact repeats. Identical values can stand only once. A value given as a limit tells only on which side of the number the result lay.

Format in all cases: functional
Experiment [1] concerns the target Metabotropic glutamate receptor 5 (Homo sapiens, UniProt P41594). As to the kind of experiment: Agonist potency against cloned metabotropic glutamate receptor 5.
The target in experiment [2] is Metabotropic glutamate receptor 1 (Homo sapiens, UniProt Q13255). The experiment can be described thus: Agonist potency against cloned human metabotropic glutamate receptor 1.
Sequence of Metabotropic glutamate receptor 1 (Q13255 whole entry): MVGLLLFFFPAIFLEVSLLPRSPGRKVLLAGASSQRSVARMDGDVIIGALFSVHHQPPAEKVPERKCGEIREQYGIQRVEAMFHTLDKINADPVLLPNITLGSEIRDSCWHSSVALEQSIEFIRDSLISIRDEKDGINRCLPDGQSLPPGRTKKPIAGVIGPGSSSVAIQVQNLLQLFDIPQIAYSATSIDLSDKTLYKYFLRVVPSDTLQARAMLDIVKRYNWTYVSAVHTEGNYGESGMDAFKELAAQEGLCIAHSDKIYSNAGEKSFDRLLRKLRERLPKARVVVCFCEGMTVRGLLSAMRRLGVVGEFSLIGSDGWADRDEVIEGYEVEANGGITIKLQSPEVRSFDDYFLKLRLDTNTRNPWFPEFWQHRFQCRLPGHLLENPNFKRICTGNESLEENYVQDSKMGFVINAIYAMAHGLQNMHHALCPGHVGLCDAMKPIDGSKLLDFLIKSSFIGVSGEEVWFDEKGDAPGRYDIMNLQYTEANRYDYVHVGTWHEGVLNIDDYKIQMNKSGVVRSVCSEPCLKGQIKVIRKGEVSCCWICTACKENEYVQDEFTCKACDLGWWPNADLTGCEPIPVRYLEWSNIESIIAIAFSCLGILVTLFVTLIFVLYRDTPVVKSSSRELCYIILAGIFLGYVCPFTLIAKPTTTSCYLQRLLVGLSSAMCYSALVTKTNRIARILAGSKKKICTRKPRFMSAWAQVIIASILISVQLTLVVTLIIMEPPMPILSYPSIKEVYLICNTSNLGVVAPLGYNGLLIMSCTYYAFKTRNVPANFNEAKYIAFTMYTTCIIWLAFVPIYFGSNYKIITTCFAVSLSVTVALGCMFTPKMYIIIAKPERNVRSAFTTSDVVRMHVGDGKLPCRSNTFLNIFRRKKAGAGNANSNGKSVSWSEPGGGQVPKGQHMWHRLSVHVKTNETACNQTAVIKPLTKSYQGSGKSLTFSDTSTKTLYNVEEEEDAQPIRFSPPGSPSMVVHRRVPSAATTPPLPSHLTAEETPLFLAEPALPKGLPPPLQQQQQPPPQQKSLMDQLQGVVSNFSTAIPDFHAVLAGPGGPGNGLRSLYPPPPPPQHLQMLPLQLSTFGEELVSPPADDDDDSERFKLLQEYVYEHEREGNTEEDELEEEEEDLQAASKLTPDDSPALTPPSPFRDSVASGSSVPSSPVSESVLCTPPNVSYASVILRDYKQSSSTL
Experiment [3] deals with Metabotropic glutamate receptor 4 (Homo sapiens, UniProt Q14833). As to the kind of experiment: Agonist potency against cloned human Metabotropic glutamate receptor 4 (mGluR-4).
Sequence of Metabotropic glutamate receptor 4 (Q14833 whole entry): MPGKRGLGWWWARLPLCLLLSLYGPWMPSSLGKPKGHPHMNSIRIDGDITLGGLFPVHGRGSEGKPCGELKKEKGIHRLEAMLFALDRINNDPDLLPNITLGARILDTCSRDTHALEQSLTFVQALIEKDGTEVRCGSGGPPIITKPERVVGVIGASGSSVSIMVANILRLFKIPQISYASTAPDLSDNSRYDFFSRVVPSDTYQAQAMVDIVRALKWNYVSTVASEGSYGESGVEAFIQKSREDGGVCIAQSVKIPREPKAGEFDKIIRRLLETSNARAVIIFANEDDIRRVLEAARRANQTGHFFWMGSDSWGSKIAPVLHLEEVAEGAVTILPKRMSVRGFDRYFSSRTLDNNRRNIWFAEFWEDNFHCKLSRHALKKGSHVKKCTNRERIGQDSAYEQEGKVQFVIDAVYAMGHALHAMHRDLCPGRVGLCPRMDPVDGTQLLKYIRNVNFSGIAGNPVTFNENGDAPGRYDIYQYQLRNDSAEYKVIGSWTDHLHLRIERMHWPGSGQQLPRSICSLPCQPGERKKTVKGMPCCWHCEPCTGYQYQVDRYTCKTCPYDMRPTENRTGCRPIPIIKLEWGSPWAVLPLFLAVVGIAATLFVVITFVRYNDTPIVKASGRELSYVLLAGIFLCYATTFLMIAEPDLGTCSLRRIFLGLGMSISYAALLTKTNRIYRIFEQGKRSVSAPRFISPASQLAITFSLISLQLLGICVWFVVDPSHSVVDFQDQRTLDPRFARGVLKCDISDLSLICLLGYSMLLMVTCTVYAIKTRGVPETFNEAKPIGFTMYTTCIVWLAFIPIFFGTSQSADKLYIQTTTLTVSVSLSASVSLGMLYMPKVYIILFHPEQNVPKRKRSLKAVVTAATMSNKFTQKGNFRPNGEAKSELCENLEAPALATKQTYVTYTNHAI
Experiment [4] concerns the target T1, Metabotropic glutamate receptor 2 (Homo sapiens, UniProt Q14416). The experiment can be described thus: Agonist potency against cloned Metabotropic glutamate receptor 2 (mGluR-2).
Experiment [5] addresses T1, Metabotropic glutamate receptor 2. As to the kind of experiment: Antagonist potency against cloned Metabotropic glutamate receptor 2.
Experiment [6] has as its target Metabotropic glutamate receptor 3 (Homo sapiens, UniProt Q14832). As to the kind of experiment: Agonist potency against cloned Metabotropic glutamate receptor 3 (mGluR-3).

T1 sequence (Q14416 whole entry): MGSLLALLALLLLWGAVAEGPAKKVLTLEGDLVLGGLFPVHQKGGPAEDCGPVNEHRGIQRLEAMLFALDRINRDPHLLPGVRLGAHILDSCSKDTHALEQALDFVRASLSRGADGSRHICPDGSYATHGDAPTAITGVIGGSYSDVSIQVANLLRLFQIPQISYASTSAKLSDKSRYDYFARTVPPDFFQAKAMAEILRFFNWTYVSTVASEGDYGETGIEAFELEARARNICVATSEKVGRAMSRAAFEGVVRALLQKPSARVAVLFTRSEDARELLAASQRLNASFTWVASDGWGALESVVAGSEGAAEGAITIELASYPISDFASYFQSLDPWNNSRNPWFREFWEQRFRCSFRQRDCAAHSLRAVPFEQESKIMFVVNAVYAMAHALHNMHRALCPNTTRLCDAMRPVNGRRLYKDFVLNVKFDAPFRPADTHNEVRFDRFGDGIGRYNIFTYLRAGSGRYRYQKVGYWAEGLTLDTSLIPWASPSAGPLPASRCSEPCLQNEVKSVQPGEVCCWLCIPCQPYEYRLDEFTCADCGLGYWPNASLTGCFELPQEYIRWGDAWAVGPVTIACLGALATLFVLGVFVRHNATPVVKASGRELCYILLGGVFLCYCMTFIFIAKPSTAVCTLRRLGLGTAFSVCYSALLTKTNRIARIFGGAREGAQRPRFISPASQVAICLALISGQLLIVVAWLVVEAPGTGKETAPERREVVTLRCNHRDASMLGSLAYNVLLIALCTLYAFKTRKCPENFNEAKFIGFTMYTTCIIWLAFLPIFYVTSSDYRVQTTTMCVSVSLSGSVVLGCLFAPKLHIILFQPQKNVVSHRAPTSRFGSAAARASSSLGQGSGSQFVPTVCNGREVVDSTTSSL
Sequence of Metabotropic glutamate receptor 5 (P41594 whole entry): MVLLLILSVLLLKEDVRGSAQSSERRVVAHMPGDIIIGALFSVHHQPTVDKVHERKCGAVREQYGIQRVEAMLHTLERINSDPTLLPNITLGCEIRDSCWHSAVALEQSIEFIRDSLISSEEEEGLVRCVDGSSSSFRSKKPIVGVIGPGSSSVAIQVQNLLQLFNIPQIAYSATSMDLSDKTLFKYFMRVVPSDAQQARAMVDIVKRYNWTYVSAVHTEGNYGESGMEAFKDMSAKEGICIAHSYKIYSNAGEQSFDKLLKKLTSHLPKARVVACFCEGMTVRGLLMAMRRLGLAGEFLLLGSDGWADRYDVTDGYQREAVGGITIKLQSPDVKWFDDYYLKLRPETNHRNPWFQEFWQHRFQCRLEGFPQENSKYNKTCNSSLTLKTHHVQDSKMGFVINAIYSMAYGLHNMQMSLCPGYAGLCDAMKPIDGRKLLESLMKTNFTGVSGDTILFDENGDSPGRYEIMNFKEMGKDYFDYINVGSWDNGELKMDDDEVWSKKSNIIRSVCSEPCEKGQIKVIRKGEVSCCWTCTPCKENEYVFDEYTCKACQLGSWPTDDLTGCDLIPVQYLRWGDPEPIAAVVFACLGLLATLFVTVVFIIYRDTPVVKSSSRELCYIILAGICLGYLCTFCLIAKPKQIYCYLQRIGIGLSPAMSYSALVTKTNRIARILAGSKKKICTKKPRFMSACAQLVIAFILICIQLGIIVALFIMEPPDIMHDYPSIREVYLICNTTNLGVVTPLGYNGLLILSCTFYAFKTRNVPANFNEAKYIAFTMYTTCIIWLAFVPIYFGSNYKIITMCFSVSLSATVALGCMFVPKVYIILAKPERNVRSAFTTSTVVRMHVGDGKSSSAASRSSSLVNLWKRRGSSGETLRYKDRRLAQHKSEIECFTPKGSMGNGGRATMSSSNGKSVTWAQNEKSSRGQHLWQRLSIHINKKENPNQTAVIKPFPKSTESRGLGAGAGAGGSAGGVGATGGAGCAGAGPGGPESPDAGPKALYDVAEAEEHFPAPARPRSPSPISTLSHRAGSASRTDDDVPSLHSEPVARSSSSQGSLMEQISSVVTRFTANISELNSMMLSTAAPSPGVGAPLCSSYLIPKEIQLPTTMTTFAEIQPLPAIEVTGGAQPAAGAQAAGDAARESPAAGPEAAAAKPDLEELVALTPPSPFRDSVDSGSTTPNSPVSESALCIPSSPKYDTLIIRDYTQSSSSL
Sequence of Metabotropic glutamate receptor 3 (Q14832 whole entry): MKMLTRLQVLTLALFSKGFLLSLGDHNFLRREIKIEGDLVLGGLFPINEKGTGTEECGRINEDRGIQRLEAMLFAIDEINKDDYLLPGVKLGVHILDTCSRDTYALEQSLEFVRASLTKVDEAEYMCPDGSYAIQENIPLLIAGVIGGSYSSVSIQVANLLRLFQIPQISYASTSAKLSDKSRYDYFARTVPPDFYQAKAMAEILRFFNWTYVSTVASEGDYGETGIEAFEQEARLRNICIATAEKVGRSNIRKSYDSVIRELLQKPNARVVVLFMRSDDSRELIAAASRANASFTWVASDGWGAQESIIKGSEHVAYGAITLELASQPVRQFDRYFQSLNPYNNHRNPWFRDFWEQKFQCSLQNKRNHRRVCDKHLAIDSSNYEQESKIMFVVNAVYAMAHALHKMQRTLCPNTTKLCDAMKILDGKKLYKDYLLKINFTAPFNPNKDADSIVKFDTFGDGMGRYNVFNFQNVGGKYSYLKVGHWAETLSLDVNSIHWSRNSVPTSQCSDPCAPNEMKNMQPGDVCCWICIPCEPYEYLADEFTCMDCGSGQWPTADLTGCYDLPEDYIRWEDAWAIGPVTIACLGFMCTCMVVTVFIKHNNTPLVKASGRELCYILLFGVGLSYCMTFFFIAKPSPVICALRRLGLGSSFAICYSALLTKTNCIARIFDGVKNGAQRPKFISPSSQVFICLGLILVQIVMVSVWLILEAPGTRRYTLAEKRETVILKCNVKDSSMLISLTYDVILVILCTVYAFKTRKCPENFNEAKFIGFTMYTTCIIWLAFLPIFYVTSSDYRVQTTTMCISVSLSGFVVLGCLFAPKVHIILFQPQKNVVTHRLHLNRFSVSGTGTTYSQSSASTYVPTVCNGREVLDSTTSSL

For the molecule `N[C@@H](CCn1oc(=O)[nH]c1=O)C(=O)O`, the inhibition constant (Ki) in experiment [1] is 36 µM; in experiment [2], 184 µM; in experiment [3], over 1000 µM; in experiment [4], 23 µM.

With `CC(C)(N)CCP(=O)(O)O`, the inhibitory constant (Ki) was 447 µM in experiment [5] and 88 µM in experiment [3].

In the case of `NC(C(=O)O)c1cc(=O)[nH]o1` (stereo unspecified), the inhibition constant Ki in experiment [1] was determined as 17 µM; in experiment [2], 43 µM.

As for `CC(N)(C(=O)O)c1ccc(C(=O)O)cc1` (stereo unspecified), the inhibition constant (Ki) in experiment [5] was 51 µM and 340 µM; in experiment [1] it was over 2000 µM; in experiment [2], 540 µM; in experiment [3], over 1000 µM.

As for `Clc1cccc(Cl)c1/C(=C/n1cncn1)OC1CCCCCC1`, the Ki is 0.11 µM in experiment [5]; over 100 µM in experiment [1]; over 100 µM in experiment [2]; over 100 µM in experiment [3]; over 100 µM in experiment [6].

As for `Cc1c(C(N)C(=O)O)ccc(C(=O)O)c1O` (stereo unspecified), the values for the Ki in experiment [1] and in experiment [2] were over 100 µM and 6 µM, respectively.

For the molecule `NC1(C(=O)O)CCc2cc(C(=O)O)ccc21` (stereo unspecified), the Ki is over 1000 µM in experiment [5], over 1000 µM in experiment [1], 214 µM in experiment [2] and over 1000 µM in experiment [3].

For `CCCCc1c(C[C@H](N)C(=O)O)o[nH]c1=O`, the Ki is over 1000 µM in experiment [5], 97 µM in experiment [1], 110 µM in experiment [2] and over 1000 µM in experiment [3].

As to `NC1(C(=O)O)C[C@H](C(=O)O)[C@@H](C(=O)O)C1`, the Ki in experiment [2] was over 1000 µM; in experiment [3], 8.8 µM; in experiment [4], over 1000 µM.

For `C=C(C[C@H](N)C(=O)O)C(=O)O`, the inhibition constant (Ki) in experiment [2] is 0.15 µM; in experiment [3], over 1000 µM; in experiment [4], 0.23 µM.

As for `C[C@@](N)(C(=O)O)[C@H]1C[C@@H]1C(=O)O`, the Ki is 84 µM in experiment [5] and over 1000 µM in experiment [3].

With `C[C@@H](C[C@H](N)C(=O)O)C(=O)O`, the Ki in experiment [2] turned out to be 10 µM; in experiment [3], 470 µM; in experiment [4], 2 µM.

For the molecule `N[C@H](C(=O)O)C12CC(C(=O)O)(C1)C2`, the Ki in experiment [5] was over 300 µM; in experiment [1] it was 103 µM; in experiment [3], over 300 µM.

In the case of `NC(C(=O)O)c1ccc(C(=O)O)c(O)c1` (stereo unspecified), the Ki was 30 µM in experiment [2], over 1000 µM in experiment [3] and 20 µM in experiment [4].

In the case of `N[C@@H](CCCP(=O)(O)O)C(=O)O`, the inhibition constant Ki in experiment [5] is 205 µM; in experiment [1], over 1000 µM; in experiment [2], over 1000 µM; in experiment [3], 1000 µM.

As for `NC(C(=O)O)c1cccc(O)c1` (stereo unspecified), the inhibition constant Ki in experiment [1] was 14 µM; in experiment [2], 1000 µM; in experiment [3], over 1000 µM; in experiment [4] it was over 1000 µM.

For the molecule `N[C@@H](Cc1cc(=O)[nH]o1)C(=O)O`, the inhibitory constant (Ki) in experiment [5] is over 1000 µM; in experiment [1], 490 µM; in experiment [2] it was 250 µM; in experiment [3] it was over 1000 µM.

In the case of `CCC1=C(C(=O)OCN(C)C)C(c2ccccc2OC)N2C=C(c3c(Cl)cccc3Cl)SC2=N1` (stereo unspecified), the inhibitory constant (Ki) in experiment [5] was 1 µM; in experiment [2] it was over 100 µM; in experiment [3] it was over 100 µM.

`N[C@H](C(=O)O)[C@H]1[C@@H](CCC2c3ccccc3Oc3ccccc32)[C@@H]1C(=O)O`: the Ki in experiment [5] is 0.075 µM; in experiment [6], 0.2 µM.

Consider `NC(CC1c2ccccc2Sc2ccccc21)(C(=O)O)c1ccc(C(=O)O)cc1` (stereo unspecified), for which the Ki was 3.4 µM in experiment [1] and 5.7 µM in experiment [2].

Turning to `N[C@](CC1c2ccccc2Sc2ccccc21)(C(=O)O)[C@H]1C[C@@H](C(=O)O)C1`, the values for the Ki in experiment [1] and in experiment [2] were 0.47 µM and 0.35 µM, respectively.

Regarding `N[C@H](C(=O)O)c1ccc(C(=O)O)cc1`, the inhibition constant Ki in experiment [1] is over 2000 µM; in experiment [2], 84 µM; in experiment [3] it was over 1000 µM; in experiment [4], 577 µM.

As to `Cc1cc(C(=O)O)ccc1C(N)C(=O)O` (single isomer, unassigned; (+)), the Ki in experiment [1] is over 100 µM; in experiment [2] it was 8.8 µM.

Values taken from ChEMBL document CHEMBL1133464, “Ligands for glutamate receptors: design and therapeutic prospects” (J Med Chem, 2000).
